Results taken from patent EP2298778A1, “IMIDAZOTHIAZOLE DERIVATIVE HAVING 4,7-DIAZASPIROÝ2.5¨OCTANE RING STRUCTURE” (Daiichi Sankyo Company, Limited, priority 2008, dated 2009).

Assay: Metabolic stability test (microsomal metabolism test)
Assay type: in vitro ADME
Conditions: pH 7.4; human-derived liver microsomes, test compound remaining after addition of NADP+ and incubation at 37°C for 30 minutes; read-out: metabolic stability of T/C%
Method: (Test Example 3 Metabolic stability test) 100 µL of 100 mM phosphate buffer solution (pH 7.4) containing 3 µM test compound was added to 100 µL of reaction solution containing 100 mM phosphate buffer solution (pH 7.4), 30 mM glucose 6-phosphate, 10 mM MgCl2·6H2O, 3 units/mL glucose 6-phosphate 1-dehydrogenase, and 0.3 to 1.5 mgP/mL human liver microsomes and the mixture was incubated at 37°C for 20 minutes. Then, 70 µL of 100 mM phosphate buffer solution (pH 7.4) containing 3 mM NADP^+ was added and the mixture was incubated at 37°C for 30 minutes to conduct a microsomal metabolism test. The metabolic stability was calculated according to the following formula: T/C (%) = ((concentration of test compound after addition of NADP)^+and incubation for30minutes)/((concentration of test compound before addition of NADP)^+) × 100. [formula] […]

| SMILES | remaining at 0.5 h |
| --- | --- |
| CC(C)C1=C(C(=O)N2[C@H](C)CC[C@H]2C(=O)N2CCN(CCO)C3(CC3)C2)SC2=N[C@@](C)(c3ccc(Cl)cc3)[C@@H](c3ccc(Cl)cc3)N21 [Example 3, 2-{7-[(5R)-1-{[(5R,6S)-5,6-bis(4-chlorophenyl)-3-isopropyl-6-methyl-5,6-dihydroimidazo[2,1-b][1,3]thiazol-2-yl]carbonyl}-5-methyl-L-prolyl]-4,7-diazaspiro[2.5]oct-4-yl}ethanol] | ≥ 50% |
| CC(C)C1=C(C(=O)N2[C@H](C)CC[C@H]2C(=O)N2CCNC3(CC3)C2)SC2=N[C@@](C)(c3ccc(Cl)nc3)[C@@H](c3ccc(C(F)(F)F)c(F)c3)N21 [Example 74, 7-[(5R)-1-({(5R,6S)-6-(6-chloropyridin-3-yl)-5-[3-fluoro-4-(trifluoromethyl)phenyl]-3-isopropyl-6-methyl-5,6-dihydroimidazo[2,1-b][1,3]thiazol-2-yl}carbonyl)-5-methyl-L-prolyl]-4,7-diazaspiro[2.5]octane] | ≥ 50% |
| CC(C)C1=C(C(=O)N2[C@H](C)CC[C@H]2C(=O)N2CCNC3(CC3)C2)SC2=N[C@@](C)(c3ccc(F)cc3)[C@@H](c3ccc(Cl)c(F)c3)N21 [Example 25, 7-[(5R)-1-{[(5R,6S)-5-(4-chloro-3-fluorophenyl)-6-(4-fluorophenyl)-3-isopropyl-6-methyl-5,6-dihydroimidazo[2,1-b][1,3]thiazol-2-yl]carbonyl}-5-methyl-L-prolyl]-4,7-diazaspiro[2.5]octane] | ≥ 50% |
| CC(C)C1=C(C(=O)N2[C@H](C)CC[C@H]2C(=O)N2CCN(CCO)C3(CC3)C2)SC2=N[C@@](C)(c3ccc(Cl)cc3)[C@@H](c3ccc(Cl)c(F)c3)N21 [Example 7, 2-{7-[(5R)-1-{[(5R,6S)-5-(4-chloro-3-fluorophenyl)-6-(4-chlorophenyl)-3-isopropyl-6-methyl-5,6-dihydroimidazo[2,1-b][1,3]thiazol-2-yl]carbonyl}-5-methyl-L-prolyl]-4,7-diazaspiro[2.5]oct-4-yl}ethanol] | ≥ 50% |
| CC(C)C1=C(C(=O)N2[C@H](C)CC[C@H]2C(=O)N2CCN(C)C3(CC3)C2)SC2=N[C@@](C)(c3ccc(Cl)cc3)[C@@H](c3ccc(Cl)c(F)c3)N21 [Example 6, 7-[(5R)-1-{[(5R,6S)-5-(4-chloro-3-fluorophenyl)-6-(4-chlorophenyl)-3-isopropyl-6-methyl-5,6-dihydroimidazo[2,1-b][1,3]thiazol-2-yl]carbonyl}-5-methyl-L-prolyl]-4-methyl-4,7-diazaspiro[2.5]octane] | ≥ 50% |
| CC(C)C1=C(C(=O)N2[C@H](C)CC[C@H]2C(=O)N2CCNC3(CC3)C2)SC2=N[C@@](C)(c3ccc(Cl)c(N)c3)[C@@H](c3ccc(Cl)c(F)c3)N21 [Example 27, 2-chloro-5-[(5R,6S)-5-(4-chloro-3-fluorophenyl)-2-{[(2S,5R)-2-(4,7-diazaspiro[2.5]oct-7-ylcarbonyl)-5-methylpyrrolidin-1-yl]carbonyl}-3-isopropyl-6-methyl-5,6-dihydroimidazo[2,1-b][1,3]thiazol-6-yl]aniline] | ≥ 50% |
| CC(C)C1=C(C(=O)N2[C@H](CF)CC[C@H]2C(=O)N2CCNC3(CC3)C2)SC2=N[C@@](C)(c3ccc(Cl)cc3)[C@@H](c3ccc(Cl)cc3)N21 [Example 38, 7-[(5S)-1-{[(5R,6S)-5,6-bis(4-chlorophenyl)-3-isopropyl-6-methyl-5,6-dihydroimidazo[2,1-b][1,3]thiazol-2-yl]carbonyl}-5-(fluoromethyl)-L-prolyl]-4,7-diazaspiro[2.5]octane] | ≥ 50% |

The next lines start with the values.

| remaining at 0.5 h | SMILES |
| --- | --- |
| ≥ 50% | CC[C@H]1CNC2(CC2)CN1C(=O)[C@@H]1CCCN1C(=O)C1=C(C(C)C)N2C(=N[C@@](C)(c3ccc(Cl)nc3)[C@H]2c2ccc(Cl)c(F)c2)S1 [Example 61, (6S)-7-(1-{[(5R,6S)-5-(4-chloro-3-fluorophenyl)-6-(6-chloropyridin-3-yl)-3-isopropyl-6-methyl-5,6-dihydroimidazo[2,1-b][1,3]thiazol-2-yl]carbonyl}-L-prolyl)-6-ethyl-4,7-diazaspiro[2.5]octane] |
| ≥ 50% | CC(C)C1=C(C(=O)N2[C@H](C)CC[C@H]2C(=O)N2CC3(CC3)N(C)C[C@@H]2C)SC2=N[C@@](C)(c3ccc(Cl)nc3)[C@@H](c3ccc(Cl)c(F)c3)N21 [Example 22, (6S)-7-[(5R)-1-{[(5R,6S)-5-(4-chloro-3-fluorophenyl)-6-(6-chloropyridin-3-yl)-3-isopropyl-6-methyl-5,6-dihydroimidazo[2,1-b][1,3]thiazol-2-yl]carbonyl}-5-methyl-L-prolyl]-4,6-dimethyl-4,7-diazaspiro[2.5]octane] |
| ≥ 50% | CC[C@@H]1CC[C@@H](C(=O)N2CCNC3(CC3)C2)N1C(=O)C1=C(C(C)C)N2C(=N[C@@](C)(c3ccc(Cl)nc3)[C@H]2c2ccc(Cl)c(F)c2)S1 [Example 32, 7-[(5R)-1-{[(5R,6S)-5-(4-chloro-3-fluorophenyl)-6-(6-chloropyridin-3-yl)-3-isopropyl-6-methyl-5,6-dihydroimidazo[2,1-b][1,3]thiazol-2-yl]carbonyl}-5-ethyl-L-prolyl]-4,7-diazaspiro[2.5]octane] |
| ≥ 50% | CC(C)C1=C(C(=O)N2[C@@H](C)CC[C@H]2C(=O)N2CC3(CC3)NC[C@@H]2C)SC2=N[C@@](C)(c3ccc(Cl)nc3)[C@@H](c3ccc(Cl)c(F)c3)N21 [Example 65, (6S)-7-[(5S)-1-{[(5R,6S)-5-(4-chloro-3-fluorophenyl)-6-(6-chloropyridin-3-yl)-3-isopropyl-6-methyl-5,6-dihydroimidazo[2,1-b][1,3]thiazol-2-yl]carbonyl}-5-methyl-L-prolyl]-6-methyl-4,7-diazaspiro[2.5]octane] |
| ≥ 50% | CC(C)C1=C(C(=O)N2[C@H](C)CC[C@H]2C(=O)N2C[C@H](C)N(C)C3(CC3)C2)SC2=N[C@@](C)(c3ccc(Cl)nc3)[C@@H](c3ccc(Cl)c(F)c3)N21 [Example 20, (5S)-7-[(5R)-1-{[(5R,6S)-5-(4-chloro-3-fluorophenyl)-6-(6-chloropyridin-3-yl)-3-isopropyl-6-methyl-5,6-dihydroimidazo[2,1-b][1,3]thiazol-2-yl]carbonyl}-5-methyl-L-prolyl]-4,5-dimethyl-4,7-diazaspiro[2.5]octane] |
| ≥ 50% | CC(C)C1=C(C(=O)N2[C@H](C)CC[C@H]2C(=O)N2C[C@@H](C)NC3(CC3)C2)SC2=N[C@@](C)(c3ccc(Cl)nc3)[C@@H](c3ccc(Cl)c(F)c3)N21 [Example 17, (5R)-7-[(5R)-1-{ [(5R,6S)-5-(4-chloro-3-fluorophenyl)-6-(6-chloropyridin-3-yl)-3-isopropyl-6-methyl-5,6-dihydroimidazo[2,1-b][1,3]thiazol-2-yl]carbonyl}-5-methyl-L-prolyl]-5-methyl-4,7-diazaspiro[2.5]octane] |
| ≥ 50% | CC(C)C1=C(C(=O)N2[C@@H]3C[C@@H]3C[C@H]2C(=O)N2CC3(CC3)NC[C@@H]2C)SC2=N[C@@](C)(c3ccc(Cl)nc3)[C@@H](c3ccc(Cl)c(F)c3)N21 [Example 70, (6S)-7-{[(1R,3S,5R)-2-{[(5R,6S)-5-(4-chloro-3-fluorophenyl)-6-(6-chloropyridin-3-yl)-3-isopropyl-6-methyl-5,6-dihydroimidazo[2,1-b][1,3]thiazol-2-yl]carbonyl}-2-azabicyclo[3.1.0]hex-3-yl]carbonyl}-6-methyl-4,7-diazaspiro[2.5]octane] |
| ≥ 50% | CC[C@H]1CNC2(CC2)CN1C(=O)[C@@H]1CC[C@@H](C)N1C(=O)C1=C(C(C)C)N2C(=N[C@@](C)(c3ccc(Cl)nc3)[C@H]2c2ccc(Cl)c(F)c2)S1 [Example 58, (6S)-7-[(5R)-1-{[(5R,6S)-5-(4-chloro-3-fluorophenyl)-6-(6-chloropyridin-3-yl)-3-isopropyl-6-methyl-5,6-dihydroimidazo[2,1-b][1,3]thiazol-2-yl]carbonyl}-5-methyl-L-prolyl]-6-ethyl-4,7-diazaspiro[2.5]octane] |
| ≥ 50% | CCN1CCN(C(=O)[C@@H]2CC[C@@H](C)N2C(=O)C2=C(C(C)C)N3C(=N[C@@](C)(c4ccc(Cl)nc4)[C@H]3c3ccc(Cl)c(F)c3)S2)CC12CC2 [Example 14, 7-[(5R)-1-{[(5R,6S)-5-(4-chloro-3-fluorophenyl)-6-(6-chloropyridin-3-yl)-3-isopropyl-6-methyl-5,6-dihydroimidazo[2,1-b][1,3]thiazol-2-yl]carbonyl}-5-methyl-L-prolyl]-4-ethyl-4,7-diazaspiro[2.5]octane] |
| ≥ 50% | CC(C)C1=C(C(=O)N2CCC[C@H]2C(=O)N2CC3(CC3)NC[C@H]2C)SC2=N[C@@](C)(c3ccc(Cl)nc3)[C@@H](c3ccc(Cl)c(F)c3)N21 [Example 64, (6R)-7-(1-{[(5R,6S)-5-(4-chloro-3-fluorophenyl)-6-(6-chloropyridin-3-yl)-3-isopropyl-6-methyl-5,6-dihydroimidazo[2,1-b][1,3]thiazol-2-yl]carbonyl}-L-prolyl)-6-methyl-4,7-diazaspiro[2.5]octane] |
| ≥ 50% | CC(C)C1=C(C(=O)N2[C@H](C)CC[C@H]2C(=O)N2CCN(C)C3(CC3)C2)SC2=N[C@@](C)(c3ccc(Cl)nc3)[C@@H](c3ccc(Cl)c(F)c3)N21 [Example 12, 7-[(5R)-1-{[(5R,6S)-5-(4-chloro-3-fluorophenyl)-6-(6-chloropyridin-3-yl)-3-isopropyl-6-methyl-5,6-dihydroimidazo[2,1-b][1,3]thiazol-2-yl]carbonyl}-5-methyl-L-prolyl]-4-methyl-4,7-diazaspiro[2.5]octane] |
